Laboratory results published in PMC5218480 (PLoS ONE, 2017).

Test system: MV-4-11 cells
Experiment: Gene expression microarray analysis (Affymetrix PrimeView) and GSEA
Type: cell-based, human
Parameters: RFU PODN (11730768_x_at) / Fold change /veh PODN (11730768_x_at) / RFU LINC00158 (11744669_a_at) / Fold change /veh LINC00158 (11744669_a_at) / RFU DUSP10 (11751237_a_at) / Fold change /veh DUSP10 (11751237_a_at) / RFU ID3 (11757404_x_at) / Fold change /veh ID3 (11757404_x_at) / RFU PLEKHG5 (11737974_s_at) / Fold change /veh PLEKHG5 (11737974_s_at) / RFU LRRC4B (11730491_at) / Fold change /veh LRRC4B (11730491_at) / RFU GIMAP4 (11747438_a_at) / Fold change /veh GIMAP4 (11747438_a_at) / RFU KRT8 (11758183_x_at) / Fold change /veh KRT8 (11758183_x_at) / RFU CNN1 (11734310_a_at) / Fold change /veh CNN1 (11734310_a_at) / RFU VPS37D (11726825_at) / Fold change /veh VPS37D (11726825_at) / RFU C10orf10 (11716522_x_at) / Fold change /veh C10orf10 (11716522_x_at) / RFU KIR2DL2 /// KIR2DL4 /// KIR2DL5A /// KIR2DL5B /// KIR2DS1 /// KIR2DS2 /// KIR2DS3 /// KIR2DS4 /// KIR3DL3 /// KIR3DL3 /// KIR3DS1 (11738374_at) / Fold change /veh KIR2DL2 /// KIR2DL4 /// KIR2DL5A /// KIR2DL5B /// KIR2DS1 /// KIR2DS2 /// KIR2DS3 /// KIR2DS4 /// KIR3DL3 /// KIR3DL3 /// KIR3DS1 (11738374_at) / RFU C1QL1 (11718748_at) / Fold change /veh C1QL1 (11718748_at) / RFU TMPRSS4 (11747572_a_at) / Fold change /veh TMPRSS4 (11747572_a_at) / RFU HAMP (11756126_x_at) / Fold change /veh HAMP (11756126_x_at) / RFU RNFT2 (11725882_a_at) / Fold change /veh RNFT2 (11725882_a_at) / RFU NR4A2 (11747474_a_at) / Fold change /veh NR4A2 (11747474_a_at) / RFU ABCC12 (11746883_a_at) / Fold change /veh ABCC12 (11746883_a_at) / RFU TMEM136 (11760407_x_at) / Fold change /veh TMEM136 (11760407_x_at) / RFU CLDN22 /// WWC2 (11732394_at) / Fold change /veh CLDN22 /// WWC2 (11732394_at) / RFU HLA-DPB1 (11760878_x_at) / Fold change /veh HLA-DPB1 (11760878_x_at) / RFU SPINT1 (11716480_a_at) / Fold change /veh SPINT1 (11716480_a_at) / RFU GAP43 (11754022_s_at) / Fold change /veh GAP43 (11754022_s_at) / RFU A4GNT (11735810_at) / Fold change /veh A4GNT (11735810_at) / RFU PRB3 (11715151_x_at) / Fold change /veh PRB3 (11715151_x_at) / RFU TUBB4B (11761932_at) / Fold change /veh TUBB4B (11761932_at) / RFU CAPN14 (11732068_a_at) / Fold change /veh CAPN14 (11732068_a_at) / RFU TMCC2 (11721928_a_at) / Fold change /veh TMCC2 (11721928_a_at) / RFU IRGQ (11745062_a_at) / Fold change /veh IRGQ (11745062_a_at) / RFU FAM174B (11720279_a_at) / Fold change /veh FAM174B (11720279_a_at) / RFU TMPRSS4 (11748680_a_at) / Fold change /veh TMPRSS4 (11748680_a_at) / RFU FAM212B (11763350_a_at) / Fold change /veh FAM212B (11763350_a_at) / RFU PLEKHG5 (11743358_a_at) / Fold change /veh PLEKHG5 (11743358_a_at) / RFU ZSCAN30 (11745921_a_at) / Fold change /veh ZSCAN30 (11745921_a_at) / RFU CMKLR1 (11741424_a_at) / Fold change /veh CMKLR1 (11741424_a_at) / RFU LOC101060620 /// MAPK8IP1 (11723275_at) / Fold change /veh LOC101060620 /// MAPK8IP1 (11723275_at) / RFU SPTSSB (11747773_x_at) / Fold change /veh SPTSSB (11747773_x_at) / RFU PRSS12 (11739890_at) / Fold change /veh PRSS12 (11739890_at) / RFU BIN1 (11741810_x_at) / Fold change /veh BIN1 (11741810_x_at) / RFU WNT11 (11732464_a_at) / Fold change /veh WNT11 (11732464_a_at) / RFU C10orf10 (11716521_a_at) / Fold change /veh C10orf10 (11716521_a_at) / RFU C5orf56 (11738089_at) / Fold change /veh C5orf56 (11738089_at) / RFU CYB561 (11721691_x_at) / Fold change /veh CYB561 (11721691_x_at) / RFU ANKRD19P (11752326_a_at) / Fold change /veh ANKRD19P (11752326_a_at) / RFU OR2T12 /// OR2T33 /// OR2T8 (11738714_s_at) / Fold change /veh OR2T12 /// OR2T33 /// OR2T8 (11738714_s_at) / RFU VCAN (11748164_a_at) / Fold change /veh VCAN (11748164_a_at) / RFU JSRP1 (11732532_at) / Fold change /veh JSRP1 (11732532_at) / RFU KRTAP10-11 (11738290_x_at) / Fold change /veh KRTAP10-11 (11738290_x_at) / RFU MYO3A (11730013_a_at) / Fold change /veh MYO3A (11730013_a_at) / RFU EBF3 (11725865_a_at) / Fold change /veh EBF3 (11725865_a_at) / RFU CAMK2N1 (11719241_x_at) / Fold change /veh CAMK2N1 (11719241_x_at) / RFU C5orf56 (11738088_a_at) / Fold change /veh C5orf56 (11738088_a_at) / RFU OLFML3 (11715873_a_at) / Fold change /veh OLFML3 (11715873_a_at) / RFU LOC100653217 /// NTM (11731650_a_at) / Fold change /veh LOC100653217 /// NTM (11731650_a_at) / RFU MAPK11 (11762145_a_at) / Fold change /veh MAPK11 (11762145_a_at) / RFU FIZ1 (11724087_x_at) / Fold change /veh FIZ1 (11724087_x_at) / RFU OASL (11726364_x_at) / Fold change /veh OASL (11726364_x_at) / RFU SOX15 (11748057_x_at) / Fold change /veh SOX15 (11748057_x_at) / RFU CD79A (11719716_a_at) / Fold change /veh CD79A (11719716_a_at) / RFU HIST1H1D (11736915_at) / Fold change /veh HIST1H1D (11736915_at) / RFU CASKIN2 (11723855_a_at) / Fold change /veh CASKIN2 (11723855_a_at) / RFU LOC730098 (11760151_x_at) / Fold change /veh LOC730098 (11760151_x_at) / RFU OR4N2 (11742367_at) / Fold change /veh OR4N2 (11742367_at) / RFU PRRT2 (11749266_a_at) / Fold change /veh PRRT2 (11749266_a_at) / RFU SNX32 (11753110_a_at) / Fold change /veh SNX32 (11753110_a_at) / RFU CDHR5 (11726645_a_at) / Fold change /veh CDHR5 (11726645_a_at) / RFU RCAN1 (11760418_a_at) / Fold change /veh RCAN1 (11760418_a_at) / RFU FAM167A (11723789_a_at) / Fold change /veh FAM167A (11723789_a_at) / RFU FAM26E (11764081_at) / Fold change /veh FAM26E (11764081_at) / RFU ISYNA1 (11749810_s_at) / Fold change /veh ISYNA1 (11749810_s_at) / RFU ACY1 (11761880_at) / Fold change /veh ACY1 (11761880_at) / RFU 11764098_at / Fold change /veh 11764098_at / RFU SAMD14 (11745864_x_at) / Fold change /veh SAMD14 (11745864_x_at) / RFU NPB (11741838_a_at) / Fold change /veh NPB (11741838_a_at) / RFU TMPRSS6 (11731388_a_at) / Fold change /veh TMPRSS6 (11731388_a_at) / RFU KRTAP10-2 (11738614_at) / Fold change /veh KRTAP10-2 (11738614_at) / RFU ARHGAP8 /// PRR5-ARHGAP8 (11727945_x_at) / Fold change /veh ARHGAP8 /// PRR5-ARHGAP8 (11727945_x_at) / RFU KRTAP5-7 /// NADSYN1 (11734609_at) / Fold change /veh KRTAP5-7 /// NADSYN1 (11734609_at) / RFU RASL12 (11751679_a_at) / Fold change /veh RASL12 (11751679_a_at) / RFU CDKN2B (11736163_a_at) / Fold change /veh CDKN2B (11736163_a_at) / RFU PRF1 (11729649_at) / Fold change /veh PRF1 (11729649_at) / RFU, ZNF638 /// ZNF638-IT1 / Fold change vs veh, ZNF638 /// ZNF638-IT1 / RFU, PANK3 / Fold change vs veh, PANK3 / RFU, SH3YL1 / Fold change vs veh, SH3YL1 / RFU, ZEB2 / Fold change vs veh, ZEB2 / RFU, NRIP1 / Fold change vs veh, NRIP1 / RFU, PTTG1IP / Fold change vs veh, PTTG1IP / RFU, CAPN2 / Fold change vs veh, CAPN2 / RFU, MED14 / Fold change vs veh, MED14 / RFU, SNORA58 / Fold change vs veh, SNORA58 / RFU, C1orf63 / Fold change vs veh, C1orf63 / RFU, LRRFIP1 / Fold change vs veh, LRRFIP1 / RFU, NDUFAF7 / Fold change vs veh, NDUFAF7 / RFU, SLC12A2 / Fold change vs veh, SLC12A2 / RFU, IBTK / Fold change vs veh, IBTK / RFU, ESF1 / Fold change vs veh, ESF1 / Fold change vs veh, TMEM50B / RFU, TAOK1 / Fold change vs veh, TAOK1 / RFU, ACBD3 / Fold change vs veh, ACBD3 / RFU, TMA16 / Fold change vs veh, TMA16 / RFU, RWDD3 / Fold change vs veh, RWDD3 / RFU, BCAT1 / Fold change vs veh, BCAT1 / RFU, EDEM3 / Fold change vs veh, EDEM3 / RFU, TMEM33 / Fold change vs veh, TMEM33 / RFU, WDR75 / Fold change vs veh, WDR75 / RFU, AHCTF1 / Fold change vs veh, AHCTF1 / RFU, TFRC / Fold change vs veh, TFRC / RFU, ZDHHC17 / Fold change vs veh, ZDHHC17 / RFU, NOM1 / Fold change vs veh, NOM1 / RFU, ARL8B / Fold change vs veh, ARL8B / RFU, ZBTB11 / Fold change vs veh, ZBTB11 / RFU, TAMM41 / Fold change vs veh, TAMM41 / RFU, KIAA1704 /// LOC100996395 / Fold change vs veh, KIAA1704 /// LOC100996395 / RFU, ING1 / Fold change vs veh, ING1 / RFU, TRMT61B / Fold change vs veh, TRMT61B / RFU, FUBP3 / Fold change vs veh, FUBP3 / RFU, TP53 / Fold change vs veh, TP53 / RFU, TNKS2 / Fold change vs veh, TNKS2 / RFU, ZFP14 / Fold change vs veh, ZFP14 / RFU, ACTR2 / Fold change vs veh, ACTR2 / RFU, PPP3R1 / Fold change vs veh, PPP3R1 / RFU, PIK3R1 / Fold change vs veh, PIK3R1 / RFU, HNRNPA1 / Fold change vs veh, HNRNPA1 / RFU, RNF170 / Fold change vs veh, RNF170 / RFU, ZNF28 / Fold change vs veh, ZNF28 / RFU, RNGTT / Fold change vs veh, RNGTT / RFU, OGT / Fold change vs veh, OGT / RFU, BRD1 / Fold change vs veh, BRD1 / RFU, MARS / Fold change vs veh, MARS / RFU, ZNF655 / Fold change vs veh, ZNF655 / RFU, FAHD1 / Fold change vs veh, FAHD1 / RFU, BDP1 / Fold change vs veh, BDP1 / RFU, LRRCC1 / Fold change vs veh, LRRCC1 / RFU, ARID1A / Fold change vs veh, ARID1A / RFU, ZNF146 / Fold change vs veh, ZNF146 / RFU, ZNF330 / Fold change vs veh, ZNF330 / RFU, GPN3 / Fold change vs veh, GPN3 / RFU, C9orf123 / Fold change vs veh, C9orf123 / RFU, N4BP2L2 / Fold change vs veh, N4BP2L2 / RFU, ARFIP1 / Fold change vs veh, ARFIP1 / RFU, FAM179B / Fold change vs veh, FAM179B / RFU, BCL10 / Fold change vs veh, BCL10 / RFU, UHRF1BP1L / Fold change vs veh, UHRF1BP1L / RFU, BET1 / Fold change vs veh, BET1 / RFU, CNOT2 / Fold change vs veh, CNOT2 / RFU, ZNF268 / Fold change vs veh, ZNF268 / Fold change vs veh, ZNF507 / RFU, DGCR2 / Fold change vs veh, DGCR2 / RFU, WDSUB1 / Fold change vs veh, WDSUB1 / Fold change vs veh, HSP90B1 /// MIR3652 / RFU, ADSS / Fold change vs veh, ADSS / RFU, GK / Fold change vs veh, GK / RFU, ZNF148 / Fold change vs veh, ZNF148 / RFU, TAF9 / Fold change vs veh, TAF9 / RFU, SLC1A5 / Fold change vs veh, SLC1A5 / RFU, SLMO2 / Fold change vs veh, SLMO2 / RFU, ABCC4 / Fold change vs veh, ABCC4 / RFU, LOC101060439 /// RAP1B / Fold change vs veh, LOC101060439 /// RAP1B / RFU, RFX7 / Fold change vs veh, RFX7 / RFU, GTPBP10 / Fold change vs veh, GTPBP10 / RFU, CNEP1R1 / Fold change vs veh, CNEP1R1 / RFU, BIVM-ERCC5 /// ERCC5 / Fold change vs veh, BIVM-ERCC5 /// ERCC5 / RFU, ILF3 / Fold change vs veh, ILF3 / RFU 11762660_at / Fold change /veh 11762660_at / RFU VCAN (11757783_s_at) / Fold change /veh VCAN (11757783_s_at) / RFU DDX43 (11728927_at) / Fold change /veh DDX43 (11728927_at) / RFU KRT8 (11758188_x_at) / Fold change /veh KRT8 (11758188_x_at) / RFU NKD1 (11759106_at) / Fold change /veh NKD1 (11759106_at) / RFU SRD5A1 (11742802_a_at) / Fold change /veh SRD5A1 (11742802_a_at) / RFU TPSAB1 /// TPSB2 (11721975_s_at) / Fold change /veh TPSAB1 /// TPSB2 (11721975_s_at) / RFU GSTM3 (11746129_a_at) / Fold change /veh GSTM3 (11746129_a_at) / RFU IL23R (11737362_x_at) / Fold change /veh IL23R (11737362_x_at) / RFU TMEM51 (11727254_a_at) / Fold change /veh TMEM51 (11727254_a_at) / RFU PIWIL2 (11732686_x_at) / Fold change /veh PIWIL2 (11732686_x_at) / RFU ORM1 (11744905_x_at) / Fold change /veh ORM1 (11744905_x_at) / RFU CCDC152 (11743942_at) / Fold change /veh CCDC152 (11743942_at) / RFU ECM1 (11717891_a_at) / Fold change /veh ECM1 (11717891_a_at) / RFU IL23R (11748794_a_at) / Fold change /veh IL23R (11748794_a_at) / RFU TNFAIP8L3 (11732012_x_at) / Fold change /veh TNFAIP8L3 (11732012_x_at) / RFU MBOAT4 (11741988_at) / Fold change /veh MBOAT4 (11741988_at) / RFU 11764193_at / Fold change /veh 11764193_at / RFU TMEM53 (11763286_at) / Fold change /veh TMEM53 (11763286_at) / RFU MAGEB2 (11727129_at) / Fold change /veh MAGEB2 (11727129_at) / RFU TMEM200A (11744735_a_at) / Fold change /veh TMEM200A (11744735_a_at) / RFU CCDC152 (11751479_a_at) / Fold change /veh CCDC152 (11751479_a_at) / RFU FAM211A (11726209_a_at) / Fold change /veh FAM211A (11726209_a_at) / RFU RGS16 (11746705_a_at) / Fold change /veh RGS16 (11746705_a_at) / RFU VCAN (11755009_s_at) / Fold change /veh VCAN (11755009_s_at) / RFU RHOB (11743442_s_at) / Fold change /veh RHOB (11743442_s_at) / RFU RGS16 (11720943_a_at) / Fold change /veh RGS16 (11720943_a_at) / RFU RGS16 (11720944_at) / Fold change /veh RGS16 (11720944_at) / RFU, VPS4B / Fold change vs veh, VPS4B / RFU, CREB1 / Fold change vs veh, CREB1 / RFU, DNAJC13 / Fold change vs veh, DNAJC13 / RFU, GNAQ / Fold change vs veh, GNAQ / RFU, CDK5R1 / Fold change vs veh, CDK5R1 / RFU, ZRANB3 / Fold change vs veh, ZRANB3 / RFU, CUL4A / Fold change vs veh, CUL4A / RFU, CCNY / Fold change vs veh, CCNY / RFU, UFL1 / Fold change vs veh, UFL1 / RFU, COG3 / Fold change vs veh, COG3 / RFU, DIAPH2 / Fold change vs veh, DIAPH2 / RFU, SKA2 / Fold change vs veh, SKA2 / RFU, AFF3 / Fold change vs veh, AFF3 / RFU, LMF1 / Fold change vs veh, LMF1 / RFU, IPO11 / Fold change vs veh, IPO11 / RFU, DFFB / Fold change vs veh, DFFB / RFU, FOXP1 / Fold change vs veh, FOXP1 / RFU, CARD8 / Fold change vs veh, CARD8 / RFU, STRN3 / Fold change vs veh, STRN3 / RFU, ADK / Fold change vs veh, ADK / RFU, RASSF2 / Fold change vs veh, RASSF2 / RFU, WIPF1 / Fold change vs veh, WIPF1 / RFU, LARP1B / Fold change vs veh, LARP1B / RFU, RASA1 / Fold change vs veh, RASA1 / RFU, RB1 / Fold change vs veh, RB1 / RFU, PPFIA1 / Fold change vs veh, PPFIA1 / RFU, MAT2A / Fold change vs veh, MAT2A / RFU, CCT5 / Fold change vs veh, CCT5 / RFU, WDR92 / Fold change vs veh, WDR92 / RFU, CUX1 / Fold change vs veh, CUX1 / RFU, TTC7A / Fold change vs veh, TTC7A / RFU, TMEM135 / Fold change vs veh, TMEM135 / RFU, DEPTOR / Fold change vs veh, DEPTOR / RFU, CPM / Fold change vs veh, CPM / RFU, DNAJB6 / Fold change vs veh, DNAJB6 / RFU, CACNA2D3 / Fold change vs veh, CACNA2D3 / RFU, DTX4 / Fold change vs veh, DTX4 / RFU, TFCP2 / Fold change vs veh, TFCP2 / RFU, GMCL1 /// GMCL1P1 / Fold change vs veh, GMCL1 /// GMCL1P1 / RFU, AEBP2 / Fold change vs veh, AEBP2 / RFU, SNHG1 /// SNORD22 /// SNORD25 /// SNORD26 /// SNORD27 /// SNORD28 /// SNORD29 /// SNORD31 / Fold change vs veh, SNHG1 /// SNORD22 /// SNORD25 /// SNORD26 /// SNORD27 /// SNORD28 /// SNORD29 /// SNORD31 / Fold change (Aza/veh), C12orf56 (ProbeSet 11735607_a_at) / Fold change (ACY-1035/veh), C12orf56 (ProbeSet 11735607_a_at) / Fold change (Aza/veh), FGFR1OP (ProbeSet 11751329_s_at) / Fold change (ACY-1035/veh), FGFR1OP (ProbeSet 11751329_s_at) / Fold change (Aza/veh), VPS36 (ProbeSet 11739960_a_at) / Fold change (ACY-1035/veh), VPS36 (ProbeSet 11739960_a_at) / RFU SYPL1 (11715823_x_at) / Fold change /veh SYPL1 (11715823_x_at) / RFU IGFBP7 (11715501_s_at) / Fold change /veh IGFBP7 (11715501_s_at) / RFU REEP3 (11722064_at) / Fold change /veh REEP3 (11722064_at) / RFU IGLL1 (11728026_x_at) / Fold change /veh IGLL1 (11728026_x_at): dose or concentration left out as unconfirmed
Details: MV-4-11 cells, 48 hours

SMILES: Nc1ncn([C@@H]2O[C@H](CO)[C@@H](O)[C@H]2O)c(=O)n1 [azacitidine]
- RFU VCAN (11757783_s_at): 10.94 RFU
